The text below walks through data of patent publication US5229369A, “Aminoalkylaminocarbonyl aminodiol amino acid derivatives as anti-hypertensive agents” (G. D. Searle & Co., priority 1991, dated 1993).

Where a name gives a salt, the structure may show the parent alone. Where a SMILES comes first, the peptide text is derived from it. [ ]: non-standard residue; d: D form. The star is where a group is joined. Sta = CC(C)C[C@H](N)[C@@H](O)CC(=O)O; Isovaleryl = CC(C)CC(=O)*

Broadly, the IC50 is the concentration at which inhibition is half-maximal. Low values mean inhibition by little substance, high ones a need for much substance.

For assay [1], the target named is T1, human renin (Homo sapiens, UniProt P00797).
T1 construct: purchased National Institute for Biological Standards, London
T1 sequence (P00797 67-406): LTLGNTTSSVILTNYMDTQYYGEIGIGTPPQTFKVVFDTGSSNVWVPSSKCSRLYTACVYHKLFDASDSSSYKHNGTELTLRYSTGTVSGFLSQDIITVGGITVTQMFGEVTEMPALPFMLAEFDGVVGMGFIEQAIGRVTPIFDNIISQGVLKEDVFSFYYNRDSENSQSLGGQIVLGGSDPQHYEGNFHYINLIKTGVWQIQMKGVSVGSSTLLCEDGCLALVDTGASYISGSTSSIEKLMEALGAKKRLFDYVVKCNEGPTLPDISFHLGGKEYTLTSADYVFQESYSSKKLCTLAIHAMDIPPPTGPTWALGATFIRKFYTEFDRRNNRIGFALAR
Description: human renin inhibition test in vitro (angiotensin I by radioimmunoassay). It counts as biochemical. As to conditions: human plasma, pH 7.4, 37° C., two hours. Here is the method:
Compounds of Formula I were evaluated as inhibitors of human renin in an in vitro assay, as follows: This human renin inhibition test has been previously described in detail [Papaioannou et al., Clinical and Experimental Hypertension, A7(9), 1243-1257 (1985)]. Human renin was obtained from the National Institute for Biological Standards, London. An incubation mixture was prepared containing in a total volume of 0.25 mL 100 mM Tris-acetate buffer at pH 7.4, 25×10^-6 Goldblatt units of renin, 0.05 mL of plasma from human volunteers taking oral contraceptives, 6.0 mM sodium EDTA, 2.4 mM phenylmethyl sulfonyl fluoride, 1.5 mM 8-hydroxyquinoline, 0.4 mg/mL BSA, and 0.024 mg/mL neomycin sulfate. This mixture was incubated for two hours at 37° C. in the presence or absence of renin inhibitors. The produced angiotensin I was determined by radioimmunoassay (New England Nuclear kit). Test compounds to be assayed were solubilized in DMSO and diluted with 100 mM Tris-acetate buffer at pH 7.4 containing 0.5% bovine serum albumin (BSA) to the appropriate concentration. The final concentration of organic solvent in the reaction mixture was less than 1%. Control incubations at 37° C. were used to correct for effects of organic solvent on renin activity.

Assay [2] deals with plasma renin. The assay can be described thus: oral activity in vivo in sodium depleted Marmoset monkeys, plasma renin activity. Also on record: species or system Common marmosets (Callithrix jacchus). The following applies: 1 h, 3 mg/kg dose. On the procedure: The oral activity of compounds of Formula I was determined in vivo in Marmoset monkeys in accordance with the following procedure: Common marmosets (Callithrix jacchus, Charles River) were placed on a modified high protein low sodium diet (Purina, St. Louis, Mo,) for 1 to 2 weeks. On the day of the test an animal was anesthetized with isoflurane and cannulated in the femoral artery and vein for blood pressure monitoring, intravenous saralasin infusion and blood sampling. After allowing the animal to recover from surgery for 2 hr, saralasin was infused at 1 microgram/min for 15 minutes to confirm that the animal's blood pressure was dependent on angiotensin II levels. The marmoset was allowed to stabilize for 30 min after the saralasin infusion. The test compound was administered orally and blood pressure was monitored for 2 hr. Blood samples were taken in K-EDTA for plasma renin activity before, 30 min, and 1 hr after compound administration.

Assay [3] deals with hog renin. As to conditions: after injection of hog renin into nephrectomized rats; Gross et al, Science, 175, 656 (1971); cited from earlier work.
The subject of assay [4] is aspartyl proteases such as pepsin, cathepsin D and renin. As to conditions: Umezawa et al, J. Antibiot. (Tokyo), 23, 259-262 (1970); cited from earlier work.

As to `CC(C)C[C@H](O)[C@H](O)[C@H](CC1CCCCC1)NC(=O)[C@H](C)CNC(=O)[C@@H](CC(=O)N(C)CCN(C)C)Cc1ccccc1` [Example 19], the midpoint of inhibition in assay [1], the IC50, lay at 48 nM. This counts as double-digit nanomolar.

In assay [1], `CC(C)C[C@H](O)[C@H](O)[C@H](CC1CCCCC1)NC(=O)[C@H](C)CNC(=O)[C@H](Cc1ccccc1)OC(=O)N(C)CCN(C)C` [Example 18] gave an IC50 of 170 nM.

Regarding `CNCCN(C)C(=O)O[C@@H](Cc1ccccc1)C(=O)N[C@@H](CC(C)C)C(=O)N[C@@H](CC1CCCCC1)[C@@H](O)[C@@H](O)CC(C)C` [Example 11], half-maximal inhibition in assay [1] (IC50) required 7.7 nM. For the same compound, the “% Reduction of Plasma Renin Activity” value in assay [2] is 100%. As to `CNCCN(C)C(=O)C[C@@H](CCc1ccccc1)C(=O)NC[C@@H](C)C(=O)N[C@@H](CC1CCCCC1)[C@@H](O)[C@@H](O)CC(C)C` [Example 28, trifluoroacetate salt], the IC50 in assay [1] amounted to 96 nM. On the same count and under the same terms, the result for `CC(C)C[C@H](O)[C@H](O)[C@H](CC1CCCCC1)NC(=O)[C@H](C)CNC(=O)[C@H](CCc1ccccc1)CC(=O)N(C)CCCCN(C)C(=O)OC(C)(C)C` [Example 21] reads 1350 nM; that for `CC(C)C[C@H](O)[C@H](O)[C@H](CC1CCCCC1)NC(=O)[C@H](C)CNC(=O)[C@H](Cc1ccccc1)OC(=O)N(C)CCN(C)C(=O)OC(C)(C)C` [Example 26], 8.3 nM. Still for that read-out and setting: the result for `CNCCN(C)C(=O)O[C@@H](Cc1ccccc1)C(=O)NC[C@@H](C)C(=O)N[C@@H](CC1CCCCC1)[C@@H](O)[C@@H](O)CC(C)C` [Example 27] reads 100 nM; that for `CC(C)C[C@H](O)[C@H](O)[C@H](CC1CCCCC1)NC(=O)[C@H](C)CNC(=O)[C@H](CCc1ccccc1)OC(=O)N(C)CCN(C)C` [Example 24], 230 nM; that for `CC(C)C[C@H](O)[C@H](O)[C@H](CC1CCCCC1)NC(=O)[C@H](Cc1c[nH]cn1)NC(=O)[C@H](Cc1ccccc1)OC(=O)N(C)CCN(C)C(=O)OC(C)(C)C` [Example 23], 0.45 nM. Take `CC(C)C[C@H](NC(=O)[C@H](Cc1ccccc1)OC(=O)N(C)CCN(C)C)C(=O)N[C@@H](CC1CCCCC1)[C@@H](O)[C@@H](O)CC(C)C` [Example 15]: the half-inhibitory concentration (IC50) in assay [1] stood at 5.4 nM. Further, in assay [2], the “% Reduction of Plasma Renin Activity” value is 79%. The compound `CC(C)C[C@H](O)[C@H](O)[C@H](CC1CCCCC1)NC(=O)[C@H](Cc1c[nH]cn1)NC(=O)[C@H](Cc1ccccc1)OC(=O)N(C)CCN(C)C` [Example 8, O-{N-[2-(N,N-dimethylamino)ethyl]-N-methylaminocarbonyl}-3-L-phenyllactyl-L-histidineamide of (2S,3R,4S)-2-amino-1-cyclohexyl-3,4-dihydroxy-6-methylheptane] showed an IC50 in assay [1] of 1 nM. In addition, the “% Reduction of Plasma Renin Activity” value in assay [2] worked out at 100%. On to `CC(C)CC(=O)N[C@H](C(=O)N[C@H](C(=O)N[C@@H](CC(C)C)[C@@H](O)CC(=O)N[C@@H](C)C(=O)N[C@@H](CC(C)C)[C@@H](O)CC(=O)O)C(C)C)C(C)C` [pepstatin] (Isovaleryl-VV[Sta]A[Sta]-OH), for which, in assay [3], the “blood pressure in vivo” value is on record as “reduce blood pressure in vivo”. In addition, the “inhibition of aspartyl proteases” value in assay [4] is “inhibitor of aspartyl proteases such as pepsin, cathepsin D and renin”. Take `CC(C)C[C@H](NC(=O)[C@H](Cc1ccccc1)OC(=O)N(CCN(C)C)C(C)C)C(=O)N[C@@H](CC1CCCCC1)[C@@H](O)[C@@H](O)CC(C)C` [Example 20]: inhibition in assay [1] was half-maximal at 19 nM (IC50). On the same count and under the same terms, the result for `CC(C)C[C@H](O)[C@H](O)[C@H](CC1CCCCC1)NC(=O)[C@H](C)CNC(=O)[C@H](CCc1ccccc1)CC(=O)N(C)CCN(C)C(=O)OC(C)(C)C` [Example 25] reads 10 nM. Turning to `CNCCN(C)C(=O)O[C@@H](Cc1ccccc1)C(=O)N[C@@H](Cc1c[nH]cn1)C(=O)N[C@@H](CC1CCCCC1)[C@@H](O)[C@@H](O)CC(C)C` [Example 10, O-{N-[2-(N-methylamino)ethyl]-N-methylaminocarbonyl}-3-L-phenyllactyl-L-histidineamide of (2S,3R,4S)-2-amino-1-cyclohexyl-3,4-dihydroxy-6-methylheptane], in assay [1], 1.5 nM corresponded to half-maximal inhibition (IC50). For the same compound, in assay [2], the “% Reduction of Plasma Renin Activity” value is reported as 100%.

In assay [1], `CNCCCCN(C)C(=O)C[C@@H](CCc1ccccc1)C(=O)NC[C@@H](C)C(=O)N[C@@H](CC1CCCCC1)[C@@H](O)[C@@H](O)CC(C)C` [Example 22, 3-{N-[4-(N-methylamino)butyl]-N-methyl-aminocarbonyl}-2-R-phenethyl-propionyl-α-(R)-methyl-β-alanineamide of (2S,3R,4S)-2-amino-1-cyclohexyl-3,4-dihydroxy-6-methylheptane] registered a concentration for half-maximal inhibition (IC50) of 67 nM. This counts as double-digit nanomolar.
